Experiments:
[1] = target: T1, RORγt ligand-binding domain (RORγt-LBD) (Homo sapiens, UniProt P51449); assay: Time-resolved FRET (TR-FRET) RORγt coactivator assay (RIP140 peptide displacement); format: biochemical; details: ligand-dependent coactivator-RORγt binding
T1 construct: 20 nM recombinantly expressed RORγ-LBD fused to GST
T1 sequence (P51449 269-508 limits assumed): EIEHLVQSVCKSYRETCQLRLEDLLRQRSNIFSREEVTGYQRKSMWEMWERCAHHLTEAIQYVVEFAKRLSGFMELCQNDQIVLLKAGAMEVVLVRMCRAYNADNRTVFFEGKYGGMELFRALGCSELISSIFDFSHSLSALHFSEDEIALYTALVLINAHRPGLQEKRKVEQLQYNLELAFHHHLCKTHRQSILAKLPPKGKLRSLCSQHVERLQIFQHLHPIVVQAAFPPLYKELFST
Description: Time-resolved FRET (TR-FRET) RORγt coactivator assay was used to identify RORγ modulator compounds with ligand-dependent coactivator displacement. The assay uses a d2-labeled anti-GST antibody, synthetic N-terminally biotinylated peptide which is derived from nuclear receptor coactivator protein RIP140, and a RORγt ligand-binding domain (RORγt-LBD) that is tagged with glutathione-S-transferase (GST). The influence of compounds on the RORγ-peptide interaction relies on the binding dependent energy transfer from a donor to an acceptor fluorophor attached to the binding partner of interest. […] For reduction of background from compound fluorescence, TR-FRET method makes use of generic fluorophore labels and time resolved detection.
The assays were done in a final volume of 20 μl in a 384 well plate in a CHAPS buffer (2 mM CHAPS; 1 mM DTT, 2 mM EDTA; 0.1% BSA), containing 20 nM recombinantly expressed RORγ-LBD fused to GST, 30 nM N-terminally biotinylated peptide, 1 nM streptavidin-terbium conjugate and 20 nM d2 labeled-anti-GST. Test compounds were diluted using 10 mM stock solution. The range of the final compound concentrations used in this test was from 0.3 nM to 30 μM (logarithmic scale). DMSO content of the samples was kept at 1%. The assay was equilibrated for 2 hours in the dark at room temperature in 384 well plates (Falcon). The signal was detected by an Ultra384 reader (TECAN). […] Compounds that promote coactivator displacement induce a concentration-dependent decrease in time-resolved fluorescent signal. Data were collected and analyzed using GraphPad Prism software (GraphPad Software V5.02, San Diego Calif. USA). IC50 in μM and E max in % were reported for each compound.

human RORγt = target: T2, human RORγt (Homo sapiens, UniProt P51449); assay: RORE Luciferase/RORγt transactivation assay (IL-17 promoter luciferase reporter in COS-7 cells); format: cell-based; set-up: V5-His (named only through the vector pcDNA3.1D/V5-His-TOPO); expressed in transfected cells; host or cells: COS-7 (monkey kidney); details: RORγt activity inhibition, luciferase activity in transfected COS-7 cells, 20 h
T2 sequence (P51449 1-497 isoform P51449-2): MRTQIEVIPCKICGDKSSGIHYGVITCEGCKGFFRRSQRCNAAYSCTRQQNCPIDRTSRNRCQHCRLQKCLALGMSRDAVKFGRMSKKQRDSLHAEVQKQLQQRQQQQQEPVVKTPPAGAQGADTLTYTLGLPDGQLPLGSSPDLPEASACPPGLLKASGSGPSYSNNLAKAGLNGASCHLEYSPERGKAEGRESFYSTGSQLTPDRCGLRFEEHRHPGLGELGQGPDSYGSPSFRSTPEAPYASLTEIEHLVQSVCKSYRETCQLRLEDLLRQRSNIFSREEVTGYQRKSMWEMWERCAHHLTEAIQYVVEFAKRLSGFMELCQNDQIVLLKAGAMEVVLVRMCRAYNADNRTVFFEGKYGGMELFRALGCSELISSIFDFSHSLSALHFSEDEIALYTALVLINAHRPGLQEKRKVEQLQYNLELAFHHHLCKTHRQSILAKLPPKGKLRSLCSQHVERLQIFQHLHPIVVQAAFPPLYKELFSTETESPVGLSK
Experimental: It is well known that RORγ binds to a conserved non-coding sequence (CNS) enhancer element in the IL-17 promoter.
Culture medium was changed every 2 days.
The 4.3 Kb human IL-17 promoter containing the RORγ-specific CNS enhancer element was PCR amplified from human genomic DNA and cloned into a pGL3-TKLuc2Cp reporter plasmid.
The luciferase reporter plasmid and the RORγt overexpression plasmid were transfected into COS-7 cell line using 4 μL JetPEI™/μg of DNA. Briefly, 150 ng of DNA (ration 1/2 between RORE-Tk Luc2Cp and cDNA RORγt or the empty vector for the negative control) was served to transfect adherent COS-7 cells in a […] culture flask, in complete medium (see cos-7 cell line culture).
Cells were then detached (using trypsin) and washed by centrifugation at 300 g for 10 minutes. Cell pellet was resuspended in serum free/phenol red free DMEM and seeded in 384 well plates at a density of 10000 cells/well and then incubated for 4 h at 37° C.
Compounds were dissolved in 100% DMSO to obtain 10 mM stock solutions. For each compound, test concentrations were diluted in serum free/phenol red free DMEM using the Genesis Freedom 200™ (TECAN) and added to the cells to obtain a 0.3% DMSO final concentration (in a final volume of 40 μL per well).
The luciferase activity was then measured with 40 μL/well steady-Glo Luciferase assay system (Promega, Madison, Wis.) and after incubation at room temperature for 30 minutes. The luminescence was estimated using the Ultra384 reader (TECAN). Data were collected and analyzed using GraphPad Prism software (GraphPad Software V5.02, San Diego Calif. USA). IC50 in μM and E max in % were reported for each compound.

SMILES	IC50 [1]	IC50 (human RORγt)
Cc1ccc(C(NC(=O)C2(c3ccc(N4CCS(=O)(=O)CC4)cc3)CC2)c2ccc(C)o2)c(C)c1 (stereo not drawn) [Cpd. 64, N-[(2,4-dimethylphenyl)(5-methylfuran-2-yl)methyl]-1-[4-(1,1-dioxo-1-thiomorpholin-4-yl)phenyl]cyclopropane-1-carboxamide]	1000 to 10000 nM	100 to 1000 nM
Cc1ccc(C(NC(=O)Cc2cnc(N3CCOCC3)nc2)c2ccc(C)o2)c(N2CCCCC2)c1 (stereo not drawn) [Cpd. 26, N-{[4-methyl-2-(piperidin-1-yl)phenyl](5-methylfuran-2-yl)methyl}-2-[2-(morpholin-4-yl)pyrimidin-5-yl]acetamide]	< 1000 nM	100 to 1000 nM
Cc1ccc(C(NC(=O)C2(c3ccc(N4CCS(=O)(=O)CC4)cc3)CC2)c2ccc(Cl)o2)cc1 (stereo not drawn) [Cpd. 67, N-[(5-chlorofuran-2-yl)(4-methylphenyl)methyl]-1-[4-(1,1-dioxo-1-thiomorpholin-4-yl)phenyl]cyclopropane-1-carboxamide]	< 1000 nM	< 100 nM
Cc1ccc(N2CCCCC2)c(C(NC(=O)Cc2cnc(N3CCS(=O)(=O)CC3)nc2)c2ccc(C)o2)c1 (stereo not drawn) [Cpd. 17, 2-[2-(1,1-dioxo-1-thiomorpholin-4-yl)pyrimidin-5-yl]-N-{[5-methyl-2-(piperidin-1-yl)phenyl](5-methylfuran-2-yl)methyl}acetamide]	100 to 1000 nM	1000 to 10000 nM
Cc1ccc(C(NC(=O)Cc2cnc(N3CCS(=O)(=O)CC3)nc2C)c2ccc(C)o2)c(C)c1 (stereo not drawn) [Cpd. 42, N-[(2,4-dimethylphenyl)(5-methylfuran-2-yl)methyl]-2-[2-(1,1-dioxo-1-thiomorpholin-4-yl)-4-methylpyrimidin-5-yl]acetamide]	1000 to 10000 nM	1000 to 10000 nM
Cc1ccc(C(NC(=O)Cc2cnc(N3CCS(=O)(=O)CC3)nc2)c2ccc(C)o2)c(Br)c1 (stereo not drawn) [Cpd. 34, N-[(2-bromo-4-methylphenyl)(5-methylfuran-2-yl)methyl]-2-[2-(1,1-dioxo-1-thiomorpholin-4-yl)pyrimidin-5-yl]acetamide]	100 to 1000 nM	100 to 1000 nM
Cc1ccc(C(NC(=O)C2(c3ccc(N4CCS(=O)(=O)CC4)c(Br)c3)CC2)c2ccc(C)o2)c(N2CCCCC2)c1 (stereo not drawn) [Cpd. 37, 1-[3-bromo-4-(1,1-dioxo-1-thiomorpholin-4-yl)phenyl]-N-{[4-methyl-2-(piperidin-1-yl)phenyl](5-methylfuran-2-yl)methyl}cyclopropane-1-carboxamide]	100 to 1000 nM	< 100 nM
Cc1ccc(C(NC(=O)C(C)(C)c2ccc(N3CCS(=O)(=O)CC3)cc2)c2ccc(C)o2)c(N2CCCCC2)c1 (stereo not drawn) [Cpd. 56, 2-[4-(1,1-dioxo-1-thiomorpholin-4-yl)phenyl]-2-methyl-N-{[4-methyl-2-(piperidin-1-yl)phenyl](5-methylfuran-2-yl)methyl}propanamide]	100 to 1000 nM	100 to 1000 nM
Cc1ccc(C(NC(=O)Cc2cc(N3CCS(=O)(=O)CC3)ccc2F)c2ccccc2)c(N2CCOCC2)c1 (stereo not drawn) [Cpd. 4, 2-[5-(1,1-dioxo-1-thiomorpholin-4-yl)-2-fluorophenyl]-N-{[4-methyl-2-(morpholin-4-yl)phenyl](phenyl)methyl}acetamide]	100 to 1000 nM	1000 to 10000 nM
Cc1ccc(C(NC(=O)Cc2cnc(N3CCS(=O)(=O)CC3)nc2)c2ccc(C)o2)c(N2CC3CC3C2)c1 (stereo not drawn) [Cpd. 36, N-[(2-{3-azabicyclo[3.1.0]hexan-3-yl}-4-methylphenyl)(5-methylfuran-2-yl)methyl]-2-[2-(1,1-dioxo-1-thiomorpholin-4-yl)pyrimidin-5-yl]acetamide]	< 1000 nM	100 to 1000 nM
Cc1ccc(C(NC(=O)Cc2cnc(N3CCS(=O)(=O)CC3)nc2)c2ccc(C)o2)c(Cl)c1 (stereo not drawn) [Cpd. 51, N-[(2-chloro-4-methylphenyl)(5-methylfuran-2-yl)methyl]-2-[2-(1,1-dioxo-1-thiomorpholin-4-yl)pyrimidin-5-yl]acetamide]	1000 to 10000 nM	
